Reference: BindingDB's records for doi:10.1021/jm9606608 (Boehringer Ingelheim (Canada), 1997)

target: T1, Dimer of Gag-Pol polyprotein [489-587] (Human immunodeficiency virus 1, UniProt P12497); assay: Protease Inhibition Assay; conditions: pH 5.5; 37 °C
T1 construct: 489-587
Description: (§1) Sensitivity of HIV-1 protease activity to protease inhibitors was determined by a peptide substrate cleavage assay. Cleavage products and substrate were separated by reversed-phase HPLC on a Perkin-Elmer 3 X 3CR C8 column.

`CCC(CC)NC(=O)C[C@@H](C(=O)NC[C@@H](O)[C@H](Cc1ccccc1)NC(=O)[C@@H](NC(=O)c1ccc2ccccc2n1)C(C)O)C(C)(C)C` (stereo partly drawn) [(2R)-2-tert-butyl-N-[(2R,3S)-2-hydroxy-3-[(2S,3R)-3-hydroxy-2-(quinolin-2-ylformamido)butanamido]-4-phenylbutyl]-N'-(pentan-3-yl)butanediamide] and `CCC(CC)NC(=O)C[C@@H](C(=O)NC[C@@H](O)[C@H](Cc1ccccc1)NC(=O)[C@@H](NC(=O)c1cnc2ccccc2n1)C(C)O)C(C)(C)C` (stereo partly drawn) [(2R)-2-tert-butyl-N-[(2R,3S)-2-hydroxy-3-[(2S,3R)-3-hydroxy-2-(quinoxalin-2-ylformamido)butanamido]-4-phenylbutyl]-N'-(pentan-3-yl)butanediamide] are within 1.5-fold of each other in IC50: 3.6 nM for the first, 3 nM for the second.

Compared with `CC(C)[C@H](NC(=O)OCc1ccccc1)C(=O)N[C@@H](Cc1ccccc1)[C@H](O)CNC(=O)C1CCCCC1C(=O)NC(C)(C)C` (stereo partly drawn) [benzyl N-[(1S)-1-{[(2S,3R)-4-{[2-(tert-butylcarbamoyl)cyclohexyl]formamido}-3-hydroxy-1-phenylbutan-2-yl]carbamoyl}-2-methylpropyl]carbamate], `CCC(CC)NC(=O)C[C@@H](C(=O)NC[C@@H](O)[C@H](Cc1ccccc1)NC(=O)[C@@H](NC(=O)OCc1ccccc1)C(C)O)C(C)(C)C` (stereo partly drawn) [benzyl N-[(1S,2S)-1-{[(2S,3R)-4-[(2R)-2-tert-butyl-N-(pentan-3-yl)butanediamido]-3-hydroxy-1-phenylbutan-2-yl]carbamoyl}-2-hydroxypropyl]carbamate] is 17-fold lower in IC50: 140 nM for the first, 8.2 nM for the second. The second is the more potent here.

target: T2, Dimer of Gag-Pol polyprotein [514-612] (Human immunodeficiency virus 2, UniProt P04584); assay: Protease Inhibition Assay; conditions: pH 5.5; 37 °C
T2 construct: 514-612
T2 sequence (P04584 whole entry): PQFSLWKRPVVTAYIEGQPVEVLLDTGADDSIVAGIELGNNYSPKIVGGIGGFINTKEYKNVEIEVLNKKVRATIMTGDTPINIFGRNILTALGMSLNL
Description: as §1

`CCC(CC)NC(=O)C[C@@H](C(=O)NC[C@@H](O)[C@H](Cc1ccccc1)NC(=O)[C@@H](NC(=O)c1ccc2ccccc2n1)C(C)C)C(C)(C)C` [(2R)-2-tert-butyl-N-[(2R,3S)-2-hydroxy-3-[(2S)-3-methyl-2-(quinolin-2-ylformamido)butanamido]-4-phenylbutyl]-N'-(pentan-3-yl)butanediamide] and `CCC(CC)NC(=O)C[C@@H](C(=O)NC[C@@H](O)[C@H](Cc1ccccc1)NC(=O)[C@@H](NC(=O)c1cnc2ccccc2n1)C(C)C)C(C)(C)C` [(2R)-2-tert-butyl-N-[(2R,3S)-2-hydroxy-3-[(2S)-3-methyl-2-(quinoxalin-2-ylformamido)butanamido]-4-phenylbutyl]-N'-(pentan-3-yl)butanediamide] are within 1.5-fold of each other in IC50: 42 nM for the first, 38 nM for the second.

`CCC(CC)NC(=O)C[C@@H](C(=O)NC[C@@H](O)[C@H](Cc1ccccc1)NC(=O)[C@H](CC(N)=O)NC(=O)c1cnc2ccccc2n1)C(C)(C)C` [(2S)-N-[(2S,3R)-4-[(2R)-2-tert-butyl-N-(pentan-3-yl)butanediamido]-3-hydroxy-1-phenylbutan-2-yl]-2-(quinoxalin-2-ylformamido)butanediamide] and `CCC(CC)NC(=O)C[C@@H](C(=O)NC[C@@H](O)[C@H](Cc1ccccc1)NC(=O)[C@H](CC(N)=O)NC(=O)c1ccc2ccccc2n1)C(C)(C)C` [(2S)-N-[(2S,3R)-4-[(2R)-2-tert-butyl-N-(pentan-3-yl)butanediamido]-3-hydroxy-1-phenylbutan-2-yl]-2-(quinolin-2-ylformamido)butanediamide] are within 1.5-fold of each other in IC50: 6.3 nM for the first, 6.7 nM for the second.

`CCC(CC)NC(=O)C[C@@H](C(=O)NC[C@@H](O)[C@H](Cc1ccccc1)NC(=O)[C@@H](NC(=O)c1cnc2ccccc2n1)C(C)O)C(C)(C)C` (stereo partly drawn) [(2R)-2-tert-butyl-N-[(2R,3S)-2-hydroxy-3-[(2S,3R)-3-hydroxy-2-(quinoxalin-2-ylformamido)butanamido]-4-phenylbutyl]-N'-(pentan-3-yl)butanediamide] was tested, and the IC50 was 135 nM.
